Results taken from ChEMBL document CHEMBL5214900, “Design, Synthesis, and Biological Evaluation of Membrane-Active Bakuchiol Derivatives as Effective Broad-Spectrum Antibacterial Agents” (J Med Chem, 2021).
≈ marks a conversion by molar mass, not a printed value.

Assays:
Escherichia coli [1] = assay: Antibacterial activity against Escherichia coli ATCC 25922 assessed as eradication of preformed bacterial biofilm by measuring residual biofilm viability at […] ug/ml incubated for 24 hrs by crystal violet staining based assay relative to control; format: functional; conditions: dose […] microg/ml, 1.56 ug/mL
Escherichia coli [2] = assay: Antibiofilm activity against Escherichia coli ATCC 25922 assessed reduction in biofilm formation at 3.125 ug/ml measured after 24 hrs by crystal violet staining based assay relative to control; format: functional; set-up: scale not given: the % may be the effect or the level left; conditions: dose 3.125 µg/ml
Staphylococcus aureus [3] = assay: Bactericidal activity against Staphylococcus aureus ATCC 29213 assessed as bacterial killing at 8 times MIC measured after 8 hrs by time-killing assay relative to control; format: functional
Acinetobacter baumannii [4] = assay: Antibacterial activity against Acinetobacter baumannii R2889 assessed as inhibition of bacterial growth incubated for 24 hrs by CLSI based broth dilution method; format: functional
Escherichia coli [5] = assay: Antibiofilm activity against Escherichia coli ATCC 25922 assessed reduction in biofilm formation at 0.78 ug/ml measured after 24 hrs by crystal violet staining based assay relative to control; format: functional; set-up: scale not given: the % may be the effect or the level left; conditions: dose 0.78 µg/ml
[6] = Cytotoxicity against mouse NCTC clone 929 cells assessed as cell viability at 25 ug/ml incubated for 24 hrs by CCK-8 assay relative to control; format: toxicity, cell-based; conditions: at 25 µg/mL, read-out: Activity
[7] = Cytotoxicity against HEK293 cells assessed as cell viability at 3.125 ug/ml incubated for 24 hrs by CCK-8 assay relative to control; format: toxicity, cell-based; conditions: human, at 3.125 µg/mL, read-out: Activity
[8] = Cytotoxicity against HEK293 cells assessed as cell viability at 6.25 ug/ml incubated for 24 hrs by CCK-8 assay relative to control; format: toxicity, cell-based; conditions: human, at 6.25 µg/mL, read-out: Activity
[9] = Cytotoxicity against mouse NCTC clone 929 cells assessed as cell viability at 50 ug/ml incubated for 24 hrs by CCK-8 assay relative to control; format: toxicity, cell-based; conditions: at 50 µg/mL, read-out: Activity
Staphylococcus aureus [10] = assay: Antibacterial activity against Staphylococcus aureus ATCC 29213 in C57BL/6 mouse model of bacterial keratitis assessed as log reduction in number of viable bacterial colonies in infected cornea at 0.8 mg/ml, TOP administered 4 times a day for 3 consecutive days; format: functional; conditions: time 3 day
Escherichia coli [11] = assay: Bactericidal activity against Escherichia coli ATCC 25922 assessed as log reduction in viable bacteria at 4 times MIC measured after 2 hrs by time-killing assay; format: functional
[12] = Cytotoxicity against HEK293 cells assessed as cell viability at 12.5 ug/ml incubated for 24 hrs by CCK-8 assay relative to control; format: toxicity, cell-based; conditions: human, at 12.5 µg/mL, read-out: Activity
Lipoteichoic acid [13] = assay: Displacement of BODIPY-TR-cadaverine from Bacillus subtilis Lipoteichoic acid at 8 times MIC measured for 30 mins by fluorescence based microplate reader assay relative to control
Staphylococcus aureus [14] = assay: Antibacterial activity against Staphylococcus aureus ATCC 29213 assessed as eradication of preformed bacterial biofilm by measuring residual biofilm viability at […] ug/ml incubated for 24 hrs by crystal violet staining based assay relative to control; format: functional; conditions: dose […] microg/ml, 1.56 ug/mL
Acinetobacter baumannii [15] = assay: Antibacterial activity against Acinetobacter baumannii ATCC 17978 assessed as fold increase in MIC incubated for 24 hrs in presence of 140 mM Na+ by CLSI based broth dilution method; format: functional
Escherichia coli [16] = assay: Antibacterial activity against Escherichia coli ATCC 25922 assessed as eradication of preformed bacterial biofilm by measuring residual biofilm viability at 6.25 ug/ml incubated for 24 hrs by crystal violet staining based assay relative to control; format: functional; conditions: dose 6.25 µg/ml
Pseudomonas aeruginosa = assay: Induction of cell death in Pseudomonas aeruginosa ATCC 9027 assessed as residual living cells at 8 times MIC incubated for 2 hrs by SYTO 9/PI staining based fluorescence analysis relative to control; format: functional
Escherichia coli [17] = assay: Antibacterial activity against Escherichia coli ATCC 25922 assessed as eradication of preformed bacterial biofilm by measuring residual biofilm viability at 25 ug/ml incubated for 24 hrs by crystal violet staining based assay relative to control; format: functional; conditions: dose 25 µg/ml
Staphylococcus aureus [18] = assay: Antibiofilm activity against Staphylococcus aureus ATCC 29213 assessed reduction in biofilm formation at 6.25 ug/ml measured after 24 hrs by crystal violet staining based assay relative to control; format: functional; set-up: scale not given: the % may be the effect or the level left; conditions: dose 6.25 µg/ml
Escherichia coli [19] = assay: Antibiofilm activity against Escherichia coli ATCC 25922 assessed reduction in biofilm formation at 6.25 ug/ml measured after 24 hrs by crystal violet staining based assay relative to control; format: functional; set-up: scale not given: the % may be the effect or the level left; conditions: dose 6.25 µg/ml
Staphylococcus aureus [20] = assay: Antibacterial activity against Staphylococcus aureus ATCC 29213 assessed as fold increase in MIC incubated for 24 hrs in presence of 140 mM Na+ by CLSI based broth dilution method; format: functional
Escherichia coli [21] = assay: Antibacterial activity against Escherichia coli ATCC 25922 assessed as eradication of preformed bacterial biofilm by measuring residual biofilm viability at 0.78 ug/ml incubated for 24 hrs by crystal violet staining based assay relative to control; format: functional; conditions: dose 0.78 µg/ml
[22] = Cytotoxicity against mouse NCTC clone 929 cells assessed as cell viability at 3.125 ug/ml incubated for 24 hrs by CCK-8 assay relative to control; format: toxicity, cell-based; conditions: at 3.125 µg/mL, read-out: Activity
Staphylococcus aureus [23] = assay: Antibacterial activity against Staphylococcus aureus NCTC10442 assessed as fold increase in MIC incubated for 24 hrs in presence of 4.5 mM K+ by CLSI based broth dilution method; format: functional
Escherichia coli [24] = assay: Antibiofilm activity against Escherichia coli ATCC 25922 assessed reduction in biofilm formation at […] ug/ml measured after 24 hrs by crystal violet staining based assay relative to control; format: functional; set-up: scale not given: the % may be the effect or the level left; conditions: dose […] microg/ml, 1.56 ug/mL
Staphylococcus aureus [25] = assay: Antibiofilm activity against Staphylococcus aureus ATCC 29213 assessed reduction in biofilm formation at […] ug/ml measured after 24 hrs by crystal violet staining based assay relative to control; format: functional; set-up: scale not given: the % may be the effect or the level left; conditions: dose […] microg/ml, 1.56 ug/mL
Lipopolysaccharide (LPS) = assay: Displacement of BODIPY-TR-cadaverine from Escherichia coli Lipopolysaccharide at 8 times MIC measured for 30 mins by fluorescence based microplate reader assay relative to control
Cell membrane = assay: Disruption of membrane integrity in Pseudomonas aeruginosa ATCC 9027 assessed as increase in fluorescence intensity at 1 to 8 times MIC by SYTOX green dye based fluorescence analysis; format: subcellular; conditions: DDE = dose-dependent effect
Staphylococcus aureus [26] = assay: Bactericidal activity against Staphylococcus aureus ATCC 29213 assessed as bacterial killing at 8 times MIC measured after 24 hrs by time-killing assay relative to control; format: functional
Staphylococcus aureus [27] = assay: Antibacterial activity against Staphylococcus aureus ATCC 29213 assessed as eradication of preformed bacterial biofilm by measuring residual biofilm viability at 3.125 ug/ml incubated for 24 hrs by crystal violet staining based assay relative to control; format: functional; conditions: dose 3.125 µg/ml
Acinetobacter baumannii [28] = assay: Antibacterial activity against Acinetobacter baumannii ATCC 17978 assessed as inhibition of bacterial growth incubated for 24 hrs by CLSI based broth dilution method; format: functional
Klebsiella pneumoniae = assay: Antibacterial activity against Klebsiella pneumoniae ATCC 14581 assessed as inhibition of bacterial growth incubated for 24 hrs by CLSI based broth dilution method; format: functional
Lipoteichoic acid [29] = assay: Displacement of BODIPY-TR-cadaverine from Bacillus subtilis Lipoteichoic acid at 2 times MIC measured for 30 mins by fluorescence based microplate reader assay relative to control

**Q.** Which results are given for C=C[C@@](C)(/C=C/c1ccc(OCCCCN(CCCN(C)C)CCCN(C)C)cc1)CCC=C(C)C?
**A.** Activity (Escherichia coli [1]): 69.09%; Activity (Escherichia coli [2]): 92.62%; Activity (Staphylococcus aureus [3]): >=99.9%; MIC (Acinetobacter baumannii [4]): 3.12 µg/mL (≈ 6.28 µM); Activity (Escherichia coli [5]): 8.71%; viability at 24 h, 25 ug/ml [6]: 74.1%; viability at 24 h, 3.125 ug/ml [7]: 94.1%; viability at 24 h, 6.25 ug/ml [8]: 93.8%; viability at 24 h, 50 ug/ml [9]: 36%; log(activity) (Staphylococcus aureus [10]): 5.7; log(activity) (Escherichia coli [11]): 4.28; viability at 24 h, 12.5 ug/ml [12]: 84.9%; Activity (Lipoteichoic acid [13]): 57.9%; Activity (Staphylococcus aureus [14]): 75.68%; fold change (FC) (Acinetobacter baumannii [15]): <2; Activity (Escherichia coli [16]): 22.69%; Activity (Pseudomonas aeruginosa): 0.3%; Activity (Escherichia coli [17]): 2.38%; Activity (Staphylococcus aureus [18]): 98.78%; Activity (Escherichia coli [19]): 95.7%; fold change (FC) (Staphylococcus aureus [20]): <2; Activity (Escherichia coli [21]): 91.55%; viability at 24 h, 3.125 ug/ml [22]: 88.9%; fold change (FC) (Staphylococcus aureus [23]): <2; Activity (Escherichia coli [24]): 38.45%; Activity (Staphylococcus aureus [25]): 42.21%; Activity (Lipopolysaccharide (LPS)): 85.6%; Activity (Cell membrane): Dde; Activity (Staphylococcus aureus [26]): 100%; Activity (Staphylococcus aureus [27]): 52.49%; MIC (Acinetobacter baumannii [28]): 3.12 µg/mL (≈ 6.28 µM); MIC (Klebsiella pneumoniae): 3.12 µg/mL (≈ 6.28 µM); Activity (Lipoteichoic acid [29]): 35.3%
